Data published in patent publication US20250144138A1, “Chimeric Antigen Receptor Therapies and Vasoactive Intestinal Peptide Receptor Antagonists” (Emory University, priority 2021, published 2025).

Tested on: CAR T cells
Experiment: Proliferation of CAR T cells co-cultured with antigen-relevant target cells, treated with exogenous VIP and/or VIPR antagonist
Format: cell-based
Method: Experiments were performed to determine whether antigen-stimulation increases VPAC1+ CAR T cells and VIPR antagonism enhances CAR T cell proliferation in the presence of VIP. CAR T cells were co-cultured alone or with antigen-relevant or antigen-irrelevant […] for 24 hrs. VPAC1 and VPAC2 expression was evaluated via flow cytometry. […] CAR T cells co-cultured with antigen-relevant target cells were treated with exogenous VIP and/or VIPR antagonist. Proliferation of CAR T cells is suppressed by VIP and rescued by exogenous VIPR antagonist (FIGS. 2A-2C).

## vasoactive intestinal peptide [VIP]
  Proliferation of CAR T cells: suppressed
